The values below come from ChEMBL document CHEMBL1201862, “PubChem BioAssay data set” (2004).

A word on the AC50: it is the midpoint of the concentration-response curve, whichever way the signal moves.

For assay [1], the target named is T1, Corticotropin-releasing factor receptor 2/Corticotropin-releasing factor-binding protein (Homo sapiens, UniProt P24387+Q13324).
T1 sequence (Q13324 whole entry): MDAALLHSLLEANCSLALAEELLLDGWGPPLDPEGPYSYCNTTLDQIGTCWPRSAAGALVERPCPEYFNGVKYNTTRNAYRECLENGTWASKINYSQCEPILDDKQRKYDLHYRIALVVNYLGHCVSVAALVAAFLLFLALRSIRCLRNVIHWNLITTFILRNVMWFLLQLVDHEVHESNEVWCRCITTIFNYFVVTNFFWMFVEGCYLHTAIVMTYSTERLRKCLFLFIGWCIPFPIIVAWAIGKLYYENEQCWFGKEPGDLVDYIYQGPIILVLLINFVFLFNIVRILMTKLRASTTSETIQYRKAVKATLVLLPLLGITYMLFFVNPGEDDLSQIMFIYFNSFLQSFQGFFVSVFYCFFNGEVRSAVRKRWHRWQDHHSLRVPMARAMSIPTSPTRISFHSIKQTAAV
T1 sequence (P24387 whole entry): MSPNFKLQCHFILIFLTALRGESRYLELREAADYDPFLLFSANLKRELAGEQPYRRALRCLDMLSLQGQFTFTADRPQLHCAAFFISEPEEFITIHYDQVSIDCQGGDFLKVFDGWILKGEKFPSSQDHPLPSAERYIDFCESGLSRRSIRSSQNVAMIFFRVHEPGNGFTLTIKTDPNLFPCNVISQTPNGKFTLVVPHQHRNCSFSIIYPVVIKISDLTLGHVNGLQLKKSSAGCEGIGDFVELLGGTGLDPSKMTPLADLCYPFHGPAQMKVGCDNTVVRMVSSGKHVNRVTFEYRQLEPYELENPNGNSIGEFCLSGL
The assay is described as follows: Dose Response confirmation of uHTS hits for small molecule antagonists of the CRF-binding protein and CRF-R2 receptor complex. It is filed as functional. The note with it: read-out: IC50_Mean.

In assay [2] the target is T1, Corticotropin-releasing factor receptor 2/Corticotropin-releasing factor-binding protein. Kind of assay: activators of CRF receptor 2 with binding protein – uHTS hits, confirmation (AID 602473). It is filed as functional. Particulars: read-out: EC50_Mean.
For another assay, the target named is Large T antigen (Simian virus 40, UniProt P03070). It is filed as functional, Betapolyomavirus macacae.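 Note: Confirmatory-stage PubChem screen for compounds that inhibit SV40 T antigen.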
Chain of Large T antigen (P03070 whole entry): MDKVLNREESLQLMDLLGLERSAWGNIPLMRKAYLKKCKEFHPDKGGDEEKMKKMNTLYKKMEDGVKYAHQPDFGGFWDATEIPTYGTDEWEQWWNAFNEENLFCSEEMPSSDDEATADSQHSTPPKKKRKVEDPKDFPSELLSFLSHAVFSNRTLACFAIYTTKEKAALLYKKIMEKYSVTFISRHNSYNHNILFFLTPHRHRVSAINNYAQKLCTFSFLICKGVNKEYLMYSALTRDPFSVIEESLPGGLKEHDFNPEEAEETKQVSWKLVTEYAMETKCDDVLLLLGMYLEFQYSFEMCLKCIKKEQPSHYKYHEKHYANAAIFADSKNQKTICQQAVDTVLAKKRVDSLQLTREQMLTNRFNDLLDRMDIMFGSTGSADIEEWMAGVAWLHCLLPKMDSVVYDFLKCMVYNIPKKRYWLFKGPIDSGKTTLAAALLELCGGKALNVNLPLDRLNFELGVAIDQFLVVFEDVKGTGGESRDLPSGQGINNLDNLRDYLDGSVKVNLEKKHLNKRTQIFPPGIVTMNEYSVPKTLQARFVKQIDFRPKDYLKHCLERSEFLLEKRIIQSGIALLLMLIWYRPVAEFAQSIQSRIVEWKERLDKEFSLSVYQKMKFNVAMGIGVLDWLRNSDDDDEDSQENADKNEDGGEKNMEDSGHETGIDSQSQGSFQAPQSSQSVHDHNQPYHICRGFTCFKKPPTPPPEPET
Assay [3] has as its target T2, Calpain-2 catalytic subunit (Sus scrofa, UniProt P43367).
T2 sequence (P43367 whole entry): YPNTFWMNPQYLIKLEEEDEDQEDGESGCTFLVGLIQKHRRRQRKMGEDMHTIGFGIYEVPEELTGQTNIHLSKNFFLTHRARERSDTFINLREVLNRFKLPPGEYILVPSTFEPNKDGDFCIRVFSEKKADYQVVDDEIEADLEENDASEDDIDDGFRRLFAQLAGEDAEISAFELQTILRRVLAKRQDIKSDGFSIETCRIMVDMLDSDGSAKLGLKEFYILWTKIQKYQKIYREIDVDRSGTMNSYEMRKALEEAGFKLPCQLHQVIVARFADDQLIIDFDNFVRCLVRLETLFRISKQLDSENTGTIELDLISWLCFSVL
The assay is described as follows: pig calpain II inhibitor potency, dose response, biochemical, fluorogenic peptide substrate (AID 1420). In kind it is functional.

For another assay, the target named is Paired box protein Pax-8 (Homo sapiens, UniProt Q06710). The assay is described as follows: inhibitors of PAX8-driven TPO luciferase reporter, dose response, RMG-I cells, cherry-pick (AID 687027).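 Note: luciferase reporter driven by Pax8 target thyroperoxidase promoter measured by SteadyGlo luminescence.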 In kind it is functional, cell-based.
Chain of Paired box protein Pax-8 (Q06710 whole entry): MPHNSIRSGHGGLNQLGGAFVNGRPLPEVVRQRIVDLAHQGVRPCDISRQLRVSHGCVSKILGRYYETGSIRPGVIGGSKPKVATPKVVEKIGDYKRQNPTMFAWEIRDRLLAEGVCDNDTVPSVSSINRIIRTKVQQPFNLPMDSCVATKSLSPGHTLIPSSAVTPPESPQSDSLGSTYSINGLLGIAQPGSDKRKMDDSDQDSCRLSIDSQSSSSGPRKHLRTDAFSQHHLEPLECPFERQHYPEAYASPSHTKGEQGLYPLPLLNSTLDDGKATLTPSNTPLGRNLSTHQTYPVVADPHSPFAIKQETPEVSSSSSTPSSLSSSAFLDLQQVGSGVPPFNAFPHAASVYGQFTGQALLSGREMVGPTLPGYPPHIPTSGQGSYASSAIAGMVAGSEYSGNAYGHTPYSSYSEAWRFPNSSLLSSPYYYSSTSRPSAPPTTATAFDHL
Assay [4] can be described thus: NIH:OVCAR-3 ovarian cancer cell cytotoxicity, dose response, PAX8 inhibitor project, plate reader, dry powder samples (AID 743044). It is filed as functional, cell-based.
In assay [5] the target is T3, Ubiquitin-conjugating enzyme E2 N (Homo sapiens, UniProt P61088).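 Note: Dose-response confirmation in a TR-FRET assay detecting UBC13-driven polyubiquitin chain formation, inhibition measured.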
T3 sequence (P61088 whole entry): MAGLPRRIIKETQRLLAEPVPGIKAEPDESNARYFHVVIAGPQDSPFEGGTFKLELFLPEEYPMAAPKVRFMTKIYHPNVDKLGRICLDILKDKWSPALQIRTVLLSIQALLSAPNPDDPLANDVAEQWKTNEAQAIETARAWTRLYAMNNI
In kind it is functional.

Assay [6] can be described thus: IGROV1 ovarian cancer cell cytotoxicity, dose response, PAX8 inhibitor project, plate reader, dry powder samples (AID 743043). In kind it is functional, cell-based. Particulars: IGROV-1.
Assay [7] has as its system BJ. The assay is described as follows: cytotoxicity toward BJ-TERT fibroblasts, dose response, cell-based, RAS-independent, luminescence (AID 1933). It is filed as functional. Particulars: Homo sapiens.
For assay [8], the system named is BJ. Kind of assay: cells. Particulars: Homo sapiens. In kind it is functional, cell-based.
Assay [9] is described as follows: microbe, parasite or virus in culture. In kind it is functional. The note with it: Mycobacterium tuberculosis.
Assay [10] deals with BJ. The assay is described as follows: cytotoxicity toward BJ-TERT-LT-ST fibroblasts, dose response, cell-based, RAS-independent, luminescence (AID 1935).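 Note: BJ fibroblasts immortalized with TERT plus LT and ST oncogenes.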 In kind it is functional. The note with it: Homo sapiens.
Assay [11] is described as follows: cytotoxicity toward DRD oncogenic fibroblasts, dose response, cell-based, non-viral oncogenic, luminescence (AID 1934). In kind it is functional. The note with it: Homo sapiens.
For assay [12], the target named is T4, Histone-lysine N-methyltransferase NSD2 (Homo sapiens, UniProt O96028).
T4 sequence (O96028 whole entry): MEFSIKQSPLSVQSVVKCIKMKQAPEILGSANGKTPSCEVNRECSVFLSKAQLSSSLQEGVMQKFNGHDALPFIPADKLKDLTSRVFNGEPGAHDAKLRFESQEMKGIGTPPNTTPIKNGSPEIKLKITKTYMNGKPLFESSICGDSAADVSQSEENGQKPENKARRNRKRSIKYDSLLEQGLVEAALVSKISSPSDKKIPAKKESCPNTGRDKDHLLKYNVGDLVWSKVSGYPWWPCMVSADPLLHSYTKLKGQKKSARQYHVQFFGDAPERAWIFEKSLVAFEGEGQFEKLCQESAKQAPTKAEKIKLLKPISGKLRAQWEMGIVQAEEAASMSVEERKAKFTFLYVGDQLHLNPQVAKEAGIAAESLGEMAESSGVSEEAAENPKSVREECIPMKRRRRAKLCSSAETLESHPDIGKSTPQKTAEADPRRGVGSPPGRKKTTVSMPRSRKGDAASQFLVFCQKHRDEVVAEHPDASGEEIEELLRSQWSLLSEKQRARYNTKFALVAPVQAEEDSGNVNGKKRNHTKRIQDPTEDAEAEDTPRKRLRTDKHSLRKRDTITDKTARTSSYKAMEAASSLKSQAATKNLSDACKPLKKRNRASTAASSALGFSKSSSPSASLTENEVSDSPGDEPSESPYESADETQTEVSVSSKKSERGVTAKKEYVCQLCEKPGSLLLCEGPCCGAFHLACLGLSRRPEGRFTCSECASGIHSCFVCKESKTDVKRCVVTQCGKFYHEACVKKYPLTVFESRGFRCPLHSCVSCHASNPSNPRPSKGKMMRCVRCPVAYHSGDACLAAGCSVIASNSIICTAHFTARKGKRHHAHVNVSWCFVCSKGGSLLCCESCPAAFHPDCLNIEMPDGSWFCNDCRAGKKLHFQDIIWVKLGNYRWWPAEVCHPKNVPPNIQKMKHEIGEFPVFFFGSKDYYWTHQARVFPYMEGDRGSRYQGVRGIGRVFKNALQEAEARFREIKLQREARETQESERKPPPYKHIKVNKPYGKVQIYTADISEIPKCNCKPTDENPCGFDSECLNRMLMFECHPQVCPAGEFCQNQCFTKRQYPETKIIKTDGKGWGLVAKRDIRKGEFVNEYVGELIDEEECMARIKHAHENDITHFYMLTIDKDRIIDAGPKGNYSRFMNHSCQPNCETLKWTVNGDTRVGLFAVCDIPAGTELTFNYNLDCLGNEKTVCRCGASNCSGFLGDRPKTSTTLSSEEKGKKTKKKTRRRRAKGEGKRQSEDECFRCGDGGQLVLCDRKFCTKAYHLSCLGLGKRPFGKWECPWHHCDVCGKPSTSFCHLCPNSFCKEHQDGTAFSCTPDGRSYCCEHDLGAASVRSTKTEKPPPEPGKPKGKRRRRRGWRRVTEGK
In kind it is biochemical.

Molecules are shown by their SMILES. Activity calls are given as the source filed them.

In the case of `O=C(OCC(=O)N1CCN(c2ccccc2)CC1)c1ccccn1`, the IC50 in assay [1] was > 47.1 µM (inactive). In assay [2], the EC50 was > 53 µM (inactive). For `CC(=O)Nc1ccc(OC(=O)C(CCS(C)(=O)=O)N2C(=O)c3ccccc3C2=O)cc1` (centres undefined), the IC50 at Large T antigen was 8.46 µM (active). On to `CC1=NC(=S)NC(c2cccs2)/C1=C(\O)OCC(C)C` (centres undefined), for which the IC50 on Large T antigen was 51.4 µM (active).

In the case of `Cc1ccc(-c2noc(CSc3nnc(Cc4ccccc4)n3-c3cccc(C)c3)n2)cc1`, the IC50 in assay [3] was 5.35 µM (not active). As to `CC1CN(C(c2ccco2)c2sc3ncnn3c2O)CC(C)O1` (centres undefined), the IC50 in [1] is > 47.1 µM (inactive). Also, the EC50 in assay [2] was > 53 µM (inactive). As to `C[C@H](CO)N1C[C@H](C)[C@H](CN(C)Cc2ccc(Cl)c(Cl)c2)OCCCC[C@H](C)Oc2ccc(NS(=O)(=O)c3ccc(F)cc3)cc2C1=O`, the concentration at half-maximal activity (AC50) is 4.85 µM (active) on Paired box protein Pax-8 and 48.3 µM (active) in assay [4]. As to `CSc1ncccc1C(=O)N(C)CC(=O)Nc1cccc(F)c1`, the IC50 in assay [1] is > 47.1 µM (inactive). In assay [2], the EC50 is > 53 µM (inactive). On to `CCc1ccc(N(C(=O)c2snc(C(N)=O)c2N)C(C(=O)NC2CCCC2)c2ccco2)cc1` (centres undefined), for which the IC50 in [5] is > 20 µM (inactive). Consider `O=C(O)c1cccc2c1C(=O)N(Cc1ccccc1)C2`, for which the IC50 in [1] is > 47.1 µM (inactive). Further, in [2], the EC50 is > 53 µM (inactive). The like results for `NC(=O)COc1ncn(-c2ccccc2)n1` were, in that order, > 47.1 µM (inactive) and > 53 µM (inactive). Regarding `Cc1ccc(C2CC(c3cccs3)=NN2C(=O)c2ccco2)o1` (centres undefined), in [3], the IC50 is > 50 µM (not active). Regarding `Cc1ccc2nc(Cl)c(/C=N/Nc3ccc(C(=O)O)cc3)cc2c1`, the IC50 in assay [3] is given as 4.02 µM (not active). Turning to `C[C@H](CO)N1C[C@H](C)[C@H](CN(C)CC2CCCCC2)OCCCC[C@H](C)Oc2ccc(NC(=O)Nc3ccccc3)cc2C1=O`, the results for the AC50 (at Paired box protein Pax-8; in assay [4]; in [6]) were 14.2 µM (active), 25 µM (active) and 38.2 µM (active), respectively. In the case of `COc1ccc(CN2CCS(=O)(=O)CC2)cc1OC`, the IC50 in assay [1] was > 47.1 µM (inactive). Moreover, the EC50 in assay [2] is > 53 µM (inactive). As for `CC(C)Cn1cc(C(=O)NC2CCN(Cc3ccccc3)CC2)c2c3ccccc3n(C)c2c1=O`, the IC50 in [5] was > 20 µM (inactive). Consider `Cc1cc(NC(=O)CCl)no1`, for which the EC50 was 18 µM (active) in the assay on BJ [7], > 150 µM (not active) with BJ [8], > 75 µM (not active) in the assay on BJ [10] and 21.1 µM (active) in assay [11]. Moreover, the CC50 in assay [9] is 19.6 µM (active). Turning to `CCCOc1ccc(OCCN2CCCC(C)C2)cc1` (centres undefined), the IC50 in [3] was < 0.4 µM (not active). Turning to `O=C(/C=C/c1ccco1)Nc1ccccc1C(=O)O`, the AC50 in [12] is > 20 µM (inactive).

As to `O=C(COC(=O)C1CCN(S(=O)(=O)c2ccccc2)CC1)NC(=O)c1ccc(OC(F)F)cc1`, in assay [1], the IC50 was > 47.1 µM (inactive). Besides, in assay [2], the EC50 was > 53 µM (inactive).

As for `CCCC[C@@H](CNC)NC[C@H](NCCCCC1CCCCC1)C(C)C`, the IC50 in [5] was > 20 µM (inactive). As to `O=C(CCCN1C(=O)/C(=C/c2cccc(Br)c2)SC1=S)Nc1cccnc1`, the EC50 in the assay with BJ [7] was 3.12 µM (active); with BJ [8], 25.3 µM (active); with BJ [10], 17.2 µM (active); in assay [11] it was 9.68 µM (active). Besides, at Paired box protein Pax-8, the AC50 was 8.92 µM (active). As for `CCN(CC)S(=O)(=O)c1cc(NS(=O)(=O)c2ccccc2)ccc1C`, the IC50 in [3] was > 50 µM (not active). As for `CCn1c(O)c(N=NC(S)=NCC2CCCO2)c2ccccc21` (centres undefined), the IC50 in assay [5] was > 20 µM (inactive). Consider `O=C(CCCN1C(=O)c2ccccc2C1=O)N1CCC(c2ccccc2)C1` (centres undefined), for which, in assay [3], the IC50 is recorded as 25.1 µM (not active). For the compound `CCOC(=O)C1CCCN(c2c(NCCCN(C)c3ccccc3)c(=O)c2=O)C1` (centres undefined), the IC50 in [3] is > 50 µM (not active). On to `C=C(C)c1cccc(C(C)(C)NC(=O)NC2CN3CCC2CC3)c1` (centres undefined), for which the AC50 in assay [12] is 15.6 µM (active).
